Source: ChEMBL document CHEMBL5500371, “Arginine and tryptophan-rich dendritic antimicrobial peptides that disrupt membranes for bacterial infection in vivo” (Eur J Med Chem, 2024)
Values after ≈ are worked out from the molar mass of the structure shown. Active and inactive are the calls of the source. The calls are words filed in the database; no cut-off is given here. Where a SMILES comes first, the peptide text is derived from it. Side-chain parts run from the residue outwards.

Experiments:
[1] = tested on: Staphylococcus aureus; test: Antibacterial activity against Staphylococcus aureus ATCC 25923 assessed as inhibition of bacterial growth incubated for 20 hrs by broth microdilution method; type: functional
[2] = tested on: Bacillus subtilis; test: Antibacterial activity against Bacillus subtilis ATCC 23857 assessed as inhibition of bacterial growth incubated for 20 hrs by broth microdilution method; type: functional
[3] = tested on: Acinetobacter baumannii; test: Antibacterial activity against Acinetobacter baumannii ATCC 19606 assessed as inhibition of bacterial growth incubated for 20 hrs by broth microdilution method; type: functional
[4] = tested on: Klebsiella pneumoniae; test: Antibacterial activity against Klebsiella pneumoniae ATCC 700603 assessed as inhibition of bacterial growth incubated for 20 hrs by broth microdilution method; type: functional
[5] = tested on: Escherichia coli; test: Antibacterial activity against Escherichia coli ATCC 25922 assessed as inhibition of bacterial growth incubated for 20 hrs by broth microdilution method; type: functional
[6] = tested on: Pseudomonas aeruginosa; test: Antibacterial activity against Pseudomonas aeruginosa ATCC 27853 assessed as inhibition of bacterial growth incubated for 20 hrs by broth microdilution method; type: functional
[7] = tested on: Staphylococcus aureus; test: Antibacterial activity against Staphylococcus aureus ATCC 25923 assessed as inhibition of bacterial growth by measuring fold increase in MIC incubated for 20 hrs in presence of NaCl by broth microdilution method relative to control; type: functional
[8] = tested on: Staphylococcus aureus; test: Antibacterial activity against Staphylococcus aureus ATCC 25923 assessed as inhibition of bacterial growth by measuring fold increase in MIC incubated for 20 hrs in presence of KCl by broth microdilution method relative to control; type: functional
[9] = tested on: Staphylococcus aureus; test: Antibacterial activity against Staphylococcus aureus ATCC 25923 assessed as inhibition of bacterial growth by measuring fold increase in MIC incubated for 20 hrs in presence of MgCl2 by broth microdilution method relative to control; type: functional
[10] = tested on: Staphylococcus aureus; test: Antibacterial activity against Staphylococcus aureus ATCC 25923 assessed as inhibition of bacterial growth by measuring fold increase in MIC incubated for 20 hrs in presence of FeCl3 by broth microdilution method relative to control; type: functional
[11] = tested on: Staphylococcus aureus; test: Antibacterial activity against Staphylococcus aureus ATCC 25923 assessed as inhibition of bacterial growth by measuring fold increase in MIC incubated for 20 hrs in presence of ZnCl2 by broth microdilution method relative to control; type: functional
[12] = tested on: Escherichia coli; test: Antibacterial activity against Escherichia coli ATCC 25922 assessed as inhibition of bacterial growth preincubated with 10% mouse serum for 1 hr and measured after 20 hrs by broth microdilution method; type: functional
[13] = tested on: Escherichia coli; test: Antibacterial activity against Escherichia coli ATCC 25922 assessed as inhibition of bacterial growth preincubated with 10% mouse serum for 6 hrs and measured after 20 hrs by broth microdilution method; type: functional
[14] = tested on: Staphylococcus aureus; test: Antibacterial activity against Staphylococcus aureus ATCC 25923 assessed as inhibition of bacterial growth preincubated with 10% mouse serum for 1 hr and measured after 20 hrs by broth microdilution method; type: functional
[15] = tested on: Staphylococcus aureus; test: Antibacterial activity against Staphylococcus aureus ATCC 25923 assessed as inhibition of bacterial growth preincubated with 10% mouse serum for 6 hrs and measured after 20 hrs by broth microdilution method; type: functional
[16] = tested on: Escherichia coli; test: Synergistic antibacterial activity against gentamicin resistant Escherichia coli ATCC 25922 assessed as fractional inhibitory concentration index at 0.25 to 4 times MIC incubated for 20 hrs in presence of gentamicin by checkerboard assay; type: functional
[17] = tested on: Staphylococcus aureus; test: Additive antibacterial activity against Staphylococcus aureus ATCC 25923 assessed as fractional inhibitory concentration index at 0.25 to 4 times MIC incubated for 20 hrs in presence of vancomycin by checkerboard assay; type: functional
[18] = tested on: Staphylococcus aureus; test: Additive antibacterial activity against Staphylococcus aureus ATCC 25923 assessed as fractional inhibitory concentration index at 0.25 to 4 times MIC incubated for 20 hrs in presence of kanamycin by checkerboard assay; type: functional
[19] = tested on: Staphylococcus aureus; test: Synergistic antibacterial activity against Staphylococcus aureus ATCC 25923 assessed as fractional inhibitory concentration index at 0.25 to 4 times MIC incubated for 20 hrs in presence of gentamicin by checkerboard assay; type: functional
[20] = tested on: Staphylococcus aureus; test: Additive antibacterial activity against gentamicin resistant Staphylococcus aureus ATCC 25923 assessed as fractional inhibitory concentration index at 0.25 to 4 times MIC incubated for 20 hrs in presence of gentamicin by checkerboard assay; type: functional
[21] = tested on: Escherichia coli; test: […] activity against Escherichia coli ATCC 25922 infected in ip dosed male BALB/c pulmonary infection model assessed as reduction in bacterial colonies administered at 3 and 12 hrs post infection and measured 24 hrs post infection; type: functional, organism-based; details: dose 5-10 mg/kg, time 12-21 hrs
[22] = Therapeutic index, ratio of MHC10 for hemolytic activity in mouse erythrocytes preincubated with 10% mouse serum for 6 hrs to MIC for Staphylococcus aureus ATCC 25923 preincubated with 10% mouse serum for 6 hrs; type: toxicity, cell-based; details: mouse erythrocytes, read-out: TI
[23] = Stability in mouse serum assessed as half life at 10 mM measured upto 24 hrs by RP-HPLC analysis; type: ADME, cell-free
[24] = tested on: Cell membrane; test: Induction of outer membrane permeabilization in Escherichia coli assessed as increase in fluorescence intensity at 0.5 to 4 times MIC measured within 1 min by NPN dye based assay
[25] = tested on: Cell membrane; test: Induction of cell membrane damage in Staphylococcus aureus assessed as PI uptake at 2 times MIC measured after 0.5 hrs by PI dye based flow cytometry analysis (reference value: 24.2%); type: cell membranes
[26] = tested on: Cell membrane; test: Disruption of cell membrane morphology in Escherichia coli assessed as loss of intact cell morphology at 2 times MIC measured after 0.5 to 2 hrs by SEM analysis; type: cell membranes; details: time 0.5-2 hrs
[27] = tested on: Cell membrane; test: Disruption of cell membrane morphology in Staphylococcus aureus assessed as loss of intact cell morphology at 2 times MIC measured after 0.5 to 2 hrs by SEM analysis; type: cell membranes; details: time 0.5-2 hrs
[28] = tested on: Staphylococcus aureus; test: Resistant development in Staphylococcus aureus assessed as increase in MIC at sub-MIC in presence of gentamicin measured after 20 passages; type: functional, organism-based
[29] = tested on: Escherichia coli; test: Additive antibacterial activity against Escherichia coli ATCC 25922 assessed as fractional inhibitory concentration index at 0.25 to 4 times MIC incubated for 20 hrs in presence of vancomycin by checkerboard assay; type: functional
[30] = tested on: Staphylococcus aureus; test: Synergistic antibacterial activity against Staphylococcus aureus ATCC 25923 assessed as fractional inhibitory concentration index at 0.25 to 4 times MIC incubated for 20 hrs in presence of polymyxin B by checkerboard assay; type: functional
[31] = Acute toxicity in male BALB/c mouse assessed as torpid movement at 80 to 130 mg/kg, ip administered as single dose and measured after 3 days; type: organism-based; details: in vivo, 72 h, dose 80-130 mg/kg, time 3 day
[32] = Acute toxicity in male BALB/c mouse assessed as lusterless fur at 80 to 130 mg/kg, ip administered as single dose and measured after 3 days; type: organism-based; details: in vivo, 72 h, dose 80-130 mg/kg, time 3 day
[33] = Acute toxicity in male BALB/c mouse assessed as animal death at 80 mg/kg, ip administered as single dose and measured after 3 days; type: organism-based; details: in vivo, 72 h, time 3 day
[34] = tested on: Escherichia coli; test: […] activity against Escherichia coli ATCC 25922 infected in male BALB/c pulmonary infection model assessed as reduction in infiltration of pneumonia cells at 5 to 10 mg/kg, ip administered at 3 and 12 hrs post infection and measured 24 hrs post infection by H and E staining based analysis; type: functional, organism-based; details: dose 5-10 mg/kg, time 12-21 hrs

Q: Which results are given for POLYMYXIN B?
A: MIC [1]: 16 µM; MIC [2]: 4 µM; MIC [3]: 2 µM; MIC [4]: 4 µM; MIC [5]: 4 µM; MIC [6]: 4 µM; fold change (FC) [7]: 4; fold change (FC) [8]: < 2; fold change (FC) [9]: < 2; fold change (FC) [10]: < 2; fold change (FC) [11]: < 2; MIC ([12]; time 21.0 hrs): 1 µM; MIC ([13]; time 26.0 hrs): 2 µM; MIC ([14]; time 21.0 hrs): 1 µM; MIC ([15]; time 21.0 hrs): 1 µM; fractional inhibitory concentration index (FICI) [16]: 0.312; fractional inhibitory concentration index (FICI) [17]: 0.563; fractional inhibitory concentration index (FICI) [18]: 0.563; fractional inhibitory concentration index (FICI) [19]: 0.313; fractional inhibitory concentration index (FICI) [20]: 1; Activity [21]: Dose-Dependent Effect

Q: Which results are given for `N=C(N)NCCC[C@H](NC(=O)[C@@H](N)CCCNC(=N)N)C(=O)NCCCC[C@H](NC(=O)[C@H](CCCNC(=N)N)NC(=O)[C@@H](N)CCCNC(=N)N)C(=O)N[C@@H](Cc1c[nH]c2ccccc12)C(=O)N[C@@H](Cc1c[nH]c2ccccc12)C(=O)N[C@@H](Cc1c[nH]c2ccccc12)C(=O)N[C@@H](Cc1c[nH]c2ccccc12)C(N)=O` (H-RRK([Arg-Arg])WWWW-NH2)?
A: MIC [1]: 16 µM (≈ 24.2 µg/mL); MIC [2]: 4 µM (≈ 6.06 µg/mL); MIC [3]: 32 µM (≈ 48.5 µg/mL); MIC [4]: 64 µM (≈ 96.9 µg/mL); MIC [5]: 16 µM (≈ 24.2 µg/mL); MIC [6]: 8 µM (≈ 12.1 µg/mL); fold change (FC) [7]: <=2; fold change (FC) [8]: <=2; fold change (FC) [9]: <=2; fold change (FC) [10]: <=2; fold change (FC) [11]: <=2; MIC ([12]; time 21 hrs): 1 µM (≈ 1.51 µg/mL); MIC ([13]; time 26 hrs): 2 µM (≈ 3.03 µg/mL); MIC ([14]; time 21 hrs): 1 µM (≈ 1.51 µg/mL); MIC ([15]; time 21 hrs): 1 µM (≈ 1.51 µg/mL); selectivity ratio [22]: 1; half-life at 10000 µM [23]: 7.38 h; Activity [24]: Active; Activity [25]: > 90%; Activity [26]: Active; Activity [27]: Active; Activity [28]: inactive; fractional inhibitory concentration index (FICI) [29]: 0.563; fractional inhibitory concentration index (FICI) [16]: 5; fractional inhibitory concentration index (FICI) [30]: 0.313; fractional inhibitory concentration index (FICI) [17]: 0.563; fractional inhibitory concentration index (FICI) [18]: 0.563; fractional inhibitory concentration index (FICI) [19]: 0.313; fractional inhibitory concentration index (FICI) [20]: 0.563; Activity [31]: Toxic; Activity [32]: Toxic; Activity [33]: Non-Toxic; Activity [21]: Dose-Dependent Effect; Activity [34]: Active

Q: Which MIC [1] does the source give for `N=C(N)NCCC[C@H](NC(=O)[C@H](CCCNC(=N)N)NC(=O)[C@H](CCCNC(=N)N)NC(=O)[C@@H](N)CCCNC(=N)N)C(=O)N[C@@H](CCCCN)C(=O)N[C@@H](Cc1c[nH]c2ccccc12)C(=O)N[C@@H](Cc1c[nH]c2ccccc12)C(=O)N[C@@H](Cc1c[nH]c2ccccc12)C(=O)N[C@@H](Cc1c[nH]c2ccccc12)C(N)=O` here?
A: Its MIC is 8 µM (≈ 12.1 µg/mL).

Q: And the MIC [2]?
A: Its MIC is 4 µM (≈ 6.06 µg/mL).

Q: And the MIC [3]?
A: Its MIC is 64 µM (≈ 96.9 µg/mL).

Q: And the MIC [4]?
A: Its MIC is 32 µM (≈ 48.5 µg/mL).

Q: What about the MIC [5] of the same compound?
A: Its MIC is 8 µM (≈ 12.1 µg/mL).

Q: And the MIC [6]?
A: Its MIC is 16 µM (≈ 24.2 µg/mL).

Q: What about the “fold change (FC)” value [7] of the same compound?
A: The value was “<=2”.

Q: What about the “fold change (FC)” value [8] of the same compound?
A: Its value is “<=2”.

Q: What about the “fold change (FC)” value [9] of the same compound?
A: Its value is “<=2”.

Q: What about the “fold change (FC)” value [10] of the same compound?
A: The value was “<=2”.

Q: And the “fold change (FC)” value [11]?
A: The value was “<=2”.

Q: What about the MIC ([12]; time 21 hrs) of the same compound?
A: Its MIC is 2 µM (≈ 3.03 µg/mL).

Q: And the MIC ([13]; time 26 hrs)?
A: The MIC was 4 µM (≈ 6.06 µg/mL).

Q: What about the MIC ([14]; time 21 hrs) of the same compound?
A: Its MIC is 2 µM (≈ 3.03 µg/mL).

Q: And the MIC ([15]; time 21 hrs)?
A: Its MIC is 2 µM (≈ 3.03 µg/mL).

Q: What about the selectivity ratio [22] of the same compound?
A: Its selectivity ratio is 0.5.

Q: What about the half-life at 10000 µM [23] of the same compound?
A: The half-life at 10000 µM was 4.31 h.

Q: What about the Activity [24] of the same compound?
A: The Activity was “Active”.

Q: And the Activity [25]?
A: Its Activity is over 90%.

Q: What about the Activity [26] of the same compound?
A: The Activity was “Active”.

Q: And the Activity [27]?
A: The Activity was “Active”.

Q: And the Activity [28]?
A: Its Activity is “inactive”.

Q: What about the “fractional inhibitory concentration index (FICI)” value [29] of the same compound?
A: Its value is 0.625.

Q: What about the “fractional inhibitory concentration index (FICI)” value [30] of the same compound?
A: Its value is 0.375.

Q: What about the “fractional inhibitory concentration index (FICI)” value [17] of the same compound?
A: The value was 0.563.

Q: And the “fractional inhibitory concentration index (FICI)” value [18]?
A: The value was 0.563.

Q: What about the “fractional inhibitory concentration index (FICI)” value [19] of the same compound?
A: The value was 0.375.

Q: And the Activity [31]?
A: Its Activity is “Toxic”.

Q: What about the Activity [32] of the same compound?
A: The Activity was “Toxic”.

Q: What about the Activity [33] of the same compound?
A: Its Activity is “Non-Toxic”.

Q: What about the Activity [34] of the same compound?
A: Its Activity is “Active”.
